The source of these data is patent US20080214537A1, “BRIDGED PHENANTHRIDINES” (CARA THERAPEUTICS, INC., priority 2007, published 2008).

The target of test [1] is human CB1 receptor (hCB1) (Homo sapiens, UniProt P21554). Nature of the test: cAMP assay (LANCE TR-FRET) in CHO-K1 cells expressing hCB1. The format is cell-based. The note with it: activity on hCB1 represents inverse agonism; for EC50: CHO-K1 cells stably expressing hCB1, intracellular cAMP, NKH-477 prestimulated; for hCB1 % Max Range: percent of range defined by CP55,940 (1 μM = 100%); for Emax: CHO-K1, percent of range defined by CP55,940 (1 μM = 100%), read-out: hCB1 % Max Range. On the procedure: (§1) The ability of compounds to act as agonists or inverse agonists at human CB2 and CB1 receptors (hCB2, hCB1, respectively) was determined by measuring changes in intracellular cAMP levels. Chinese Hamster Ovary (CHO-K1) cell lines stably expressing hCB2 (Genebank: X74328) or hCB1 (Genebank: X54937) were purchased from Euroscreen (Gosselies, Belgium).
Sequence of human CB1 receptor (hCB1) (P21554 whole entry): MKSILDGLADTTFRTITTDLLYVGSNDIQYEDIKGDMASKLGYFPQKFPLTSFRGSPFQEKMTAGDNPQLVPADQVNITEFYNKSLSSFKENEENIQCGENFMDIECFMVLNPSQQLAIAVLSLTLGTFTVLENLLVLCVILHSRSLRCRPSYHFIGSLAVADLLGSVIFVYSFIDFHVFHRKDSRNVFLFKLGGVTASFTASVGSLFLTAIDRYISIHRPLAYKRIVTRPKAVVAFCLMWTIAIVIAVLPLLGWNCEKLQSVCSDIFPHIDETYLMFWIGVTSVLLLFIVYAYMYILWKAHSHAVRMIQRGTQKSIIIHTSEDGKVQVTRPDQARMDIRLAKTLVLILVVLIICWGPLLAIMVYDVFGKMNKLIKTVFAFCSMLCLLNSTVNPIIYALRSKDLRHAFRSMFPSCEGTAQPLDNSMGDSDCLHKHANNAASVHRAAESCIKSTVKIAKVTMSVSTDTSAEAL
(§2) Cell lines were grown in suspension in EX-CELL 302 CHO Serum-free medium (Sigma, catalog #14324C) supplemented with 1% Fetal Bovine Serum, glutamine and with or without non-essential amino-acids under 0.4 mg/mL G418 selection.
(§3) Receptor mediated responses were determined by measuring changes in intracellular cAMP using LANCE cAMP detection kit (catalog #AD0264, PerkinElmer, Wellesley, Mass.) based on time-resolved fluorescence resonance energy transfer (TR-FRET). Changes in cAMP were determined in cells pre-incubated with IBMX (isobutyl methylxanthine) and prestimulated with NKH-477 (a water soluble forskolin derivative, catalog #1603, Tocris, Ellisville, Mo.) to increase basal cAMP levels as detailed below.
(§4) On the day of the experiment, cells were spun at low speed for 5 min at room temperature. The supernatant was removed and cells were resuspended in stimulation buffer (Hanks Buffered Salt Solution/5 mM HEPES, containing 0.5 mM IBMX (catalog #17018, Sigma) and 0.02% BSA (PerkinElmer, catalog #CR84-100)). Cell clumps were removed by filtering through cell strainer 40 μm (BD Falcon, Discovery Labware, Bedford, Mass.) and diluted to 2×10^5 cells/mL. Antibody supplied with the LANCE cAMP immunoassay kit was then added according to the manufacturer's instructions. An aliquot of cells was taken for un-induced controls. To the remaining cells was added NKH-477 (a water soluble forskolin derivative, Tocris catalog #1603) to a final concentration of 2-8 μM. Cells were then incubated for either 25 or 30 min at room temperature prior to adding to Proxiplates containing test compounds (final DMSO concentration was less than 0.5%) with a Multidrop bulk dispenser, followed by a sixty minute incubation at room temperature. The response was stopped by addition of the detection mix supplied with the LANCE kit.
(§5) The reagents were allowed to equilibrate for three hours prior to reading on an Envision multi-mode detector (PerkinElmer). TR-FRET was measured using a 330-380 nm excitation filter, 615 and 665 nm emission filters, dichroic mirror 380 nm and Z=1 mm.
(§6) Cyclic AMP concentrations in each well were back-calculated from a cAMP standard curve run concurrently during each assay. Each plate contained 16 wells of forskolin stimulated cells and 16 wells of forskolin plus CP55,940-treated. CP55,940-treated cells were treated with CP55,940 (Tocris catalog #0949) at 1 μM and the maximal response was used as the full range (100%) standard. WIN55,212 (Tocris catalog #1038) was used as an internal standard. Concentrations of cAMP were expressed as a percent of the difference of these two groups of wells. Concentration-response data including EC50 (the concentration of compound producing 50% of the maximal response) and intrinsic activity (the percent maximal activation compared to full activation by CP55,940) were determined using a four-parameter non-linear regression algorithm (Xlfit equation 251, IDBS).

Test [2] deals with human CB2 receptor (hCB2) (Homo sapiens, UniProt P34972). Description: cAMP assay (LANCE TR-FRET) in CHO-K1 cells expressing hCB2. The format is cell-based. Particulars: for Emax: CHO-K1, read-out: hCB2 % Max Range; for EC50: CHO-K1 cells stably expressing hCB2, intracellular cAMP, NKH-477 prestimulated, average of at least three replicates. On the procedure: as §1, §2, §3, §4, §5
Sequence of human CB2 receptor (hCB2) (P34972 whole entry): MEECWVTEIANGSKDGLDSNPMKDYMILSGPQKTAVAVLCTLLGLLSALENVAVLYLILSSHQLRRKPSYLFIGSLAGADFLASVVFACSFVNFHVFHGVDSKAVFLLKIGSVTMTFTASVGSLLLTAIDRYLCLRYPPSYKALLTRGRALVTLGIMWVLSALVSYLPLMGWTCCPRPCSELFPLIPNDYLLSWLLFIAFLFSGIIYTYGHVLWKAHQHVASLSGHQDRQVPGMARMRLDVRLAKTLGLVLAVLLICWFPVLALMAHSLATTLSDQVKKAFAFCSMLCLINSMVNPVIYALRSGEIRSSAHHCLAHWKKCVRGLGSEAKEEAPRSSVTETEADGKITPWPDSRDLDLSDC
as §6, with “IDBS). Assays were performed with at least three replicates per compound and averaged results for the several compounds of the invention are shown in Table I.” for “IDBS).”
(cAMP levels reflect the balance of adenylyl cyclase and phosphodiesterase activity.)

Where [3] appears, read: intrinsic activity: percent maximal activation compared to full activation by CP55,940 (1 μM = 100%).

A word on the EC50: it is the midpoint of the concentration-response curve. Regarding `CC(=O)Nc1ccc2c(c1)C1C3CCC(C3)C1C(c1ccc(C)cc1)N2` (single isomer, unassigned) [(25a), Bridged N-(6-p-tolyl-5,6,6a,7,8,9,10,10a-octahydrophenanthridin-2-yl)acetamide], in test [1], a half-maximal effect (EC50) was put at 3280 nM and the “hCB1 % Max Range” value was determined as 78%. Besides, the Emax in test [2] (setting [3]) is less than 40%. The same molecule displayed an EC50 in test [2] greater than 10000 nM.
For `CC(=O)Nc1ccc2c(c1)C1C3CCC(C3)C1C(c1ccc(C)cc1)N2` (single isomer, unassigned) [(25b), Bridged N-(6-p-tolyl-5,6,6a,7,8,9,10,10a-octahydrophenanthridin-2-yl)acetamide], in test [1], the EC50 turned out to be 3540 nM and the “hCB1 % Max Range” value came to 107%. The EC50 in test [2] was greater than 10000 nM. Also, the “hCB2 % Max Range” value in test [2] (setting [3]) is “N/A (N/A: Response <40% assay range)”.
Take `CCCNC(=S)Nc1ccc2c(c1)C1C3CCC(C3)C1C(c1ccccc1)N2` (stereo not drawn) [(6), Bridged 1-propyl-3-(phenyl-5,6,6a,7,8,9,10,10a-octahydrophenanthridin-2-yl)thiourea]: the Emax in test [1] worked out at 53%; in test [2] (setting [3]), 76%. Also, the results for the EC50 in test [1] and in test [2] were 1860 nM and 99.8 nM, respectively.
In the same order, the values of `CCCNC(=O)Nc1ccc2c(c1)C1C3CCC(C3)C1C(c1ccc(C)cc1)N2` (stereo not drawn) [(7), Bridged 1-propyl-3-(6-p-tolyl-5,6,6a,7,8,9,10,10a-octahydrophenanthridin-2-yl)urea] are less than 40%, less than 40%, greater than 10000 nM and greater than 10000 nM.
In the same order, the values of `CCCNC(=S)Nc1ccc2c(c1)C1C3CCC(C3)C1C(c1ccc(C)cc1)N2` (stereo not drawn) [(8), Bridged 1-propyl-3-(6-p-tolyl-5,6,6a,7,8,9,10,10a-octahydrophenanthridin-2-yl)thiourea] are 63%, less than 40%, 2040 nM and greater than 10000 nM.
In the same order, the values of `O=S(=O)(c1ccc2c(c1)C1C3CCC(C3)C1C(c1c(Cl)cccc1Cl)N2)N1CCCCC1` (stereo not drawn) [(9), Bridged 6-(2,6-dichlorophenyl)-2-(piperidin-1-ylsulfonyl)-5,6,6a,7,8,9,10,10a-octahydrophenanthridine] are less than 40%, 75%, greater than 10000 nM and 79.4 nM.
`Cc1ccc(C2Nc3ccc(S(=O)(=O)N4CCCCC4)cc3C3C4CCC(C4)C23)cc1` (stereo not drawn) [(10), Bridged 2-(piperidin-1-ylsulfonyl)-6-p-tolyl-5,6,6a,7,8,9,10,10a-octahydrophenanthridine]: the Emax was less than 40% in test [1] and 98% in test [2] (setting [3]). Moreover, the figures for the EC50 in test [1] and in test [2] were greater than 10000 nM and 21 nM, respectively.
In the same order, the values of `CN(C)S(=O)(=O)c1ccc2c(c1)C1C3CCC(C3)C1C(c1ccccc1)N2` (stereo not drawn) [(11), Bridged N,N-dimethyl-6-phenyl-5,6,6a,7,8,9,10,10a-octahydrophenanthridine-2-sulfonamide] are less than 40%, 99%, greater than 10000 nM and 0.98 nM.
With `COCCC(=O)Nc1ccc2c(c1)C1C3CCC(C3)C1C(c1ccccc1)N2` (stereo not drawn) [(12), Bridged 3-methoxy-N-(6-phenyl-5,6,6a,7,8,9,10,10a-octahydrophenanthridin-2-yl)propanamide], the Emax in test [1] was less than 40%; in test [2] (setting [3]), 82%. In addition, the concentration for a half-maximal effect (EC50) in test [1] is greater than 10000 nM; in test [2], 12.4 nM.
In the same order, the values of `O=C(Nc1ccc2c(c1)C1C3CCC(C3)C1C(c1ccccc1)N2)c1cocn1` (stereo not drawn) [(13), Bridged N-(6-phenyl-5,6,6a,7,8,9,10,10a-octahydrophenanthridin-2-yl)oxazole-4-carboxamide] are less than 40%, 57%, greater than 10000 nM and 680 nM.
In the same order, the values of `O=C(CC1CCCO1)Nc1ccc2c(c1)C1C3CCC(C3)C1C(c1ccccc1)N2` (stereo not drawn) [(14), Bridged N-(6-phenyl-5,6,6a,7,8,9,10,10a-octahydrophenanthridin-2-yl)-2-(tetrahydrofuran-2-yl) acetamide] are less than 40%, 92%, greater than 10000 nM and 9.1 nM.
In the same order, the values of `COCCC(=O)Nc1ccc2c(c1)C1C3CCC(C3)C1C(c1ccc(C)cc1)N2` (stereo not drawn) [(15), Bridged 3-methoxy-N-(6-p-tolyl-5,6,6a,7,8,9,10,10a-octahydrophenanthridin-2-yl)propanamide] are 56%, less than 40%, 2360 nM and greater than 10000 nM.
Turning to `Cc1ccc(C2Nc3ccc(NC(=O)CC4CCCO4)cc3C3C4CCC(C4)C23)cc1` (stereo not drawn) [(16), Bridged 2-(tetrahydrofuran-2-yl)-N-(6-p-tolyl-5,6,6a,7,8,9,10,10a-octahydrophenanthridin-2-yl)acetamide], the Emax in test [1] is less than 40%; in test [2] (setting [3]), 52%. Besides, the EC50 in test [1] is greater than 10000 nM; in test [2], 102 nM.
For `c1ccc(C2Nc3ccc(N4CCOCC4)cc3C3C4CCC(C4)C23)cc1` (stereo not drawn) [(17), Bridged 4-(6-phenyl-5,6,6a,7,8,9,10,10a-octahydrophenanthridin-2-yl)morpholine], the Emax was less than 40% in test [1] and 94% in test [2] (setting [3]). In addition, the EC50 in test [1] is greater than 10000 nM; in test [2], 140 nM.
The like results for `Cc1ccc(C2Nc3ccc(N4CCOCC4)cc3C3C4CCC(C4)C23)cc1` (stereo not drawn) [(18), Bridged 4-(6-p-tolyl-5,6,6a,7,8,9,10,10a-octahydrophenanthridin-2-yl)morpholine] were, in that order, less than 40%, less than 40%, greater than 10000 nM and greater than 10000 nM.
Consider `O=C(Nc1ccc2c(c1)C1C3CCC(C3)C1C(c1ccccc1)N2)C1CC1` (stereo not drawn) [(19), Bridged N-(6-phenyl-5,6,6a,7,8,9,10,10a-octahydrophenanthridin-2-yl)cyclopropanecarboxamide], for which the Emax in test [1] stood at 53%; in test [2] (setting [3]), 49%. The EC50 in test [1] turned out to be 1700 nM; in test [2], 187 nM.
In the same order, the values of `O=C(Nc1ccc2c(c1)C1C3CCC(C3)C1C(c1c(Cl)cccc1Cl)N2)C1CC1` (stereo not drawn) [(20), Bridged N-(6-(2,6-dichlorophenyl)-5,6,6a,7,8,9,10,10a-octahydrophenanthridin-2-yl)cyclopropanecarboxamide] are less than 40%, less than 40%, greater than 10000 nM and greater than 10000 nM.
The like results for `CCC1Nc2ccc(NC(=O)C3CC3)cc2C2C3CCC(C3)C12` (stereo not drawn) [(21), Bridged N-(6-ethyl-5,6,6a,7,8,9,10,10a-octahydrophenanthridin-2-yl)cyclopropanecarboxamide] were, in that order, less than 40%, 84%, greater than 10000 nM and 1200 nM.
